Laboratory results: PubChem BioAssay (NCI)
Several values for one entry are separate records, joined by “and”; a condition that tells them apart may be missing. Equal values may be shown once.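 Where inhibition never reached the appropriate level, the endpoint shown equals the highest concentration tested. Otherwise, values were interpolated linearly from a five-concentration, 48-hour dose response in 96-well plates. GI50 = concentration required for 50% inhibition of growth. TGI denotes the concentration required for complete inhibition of growth.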 Where a SMILES comes first, the peptide text is derived from it. The star is where a group is joined. Boc = CC(C)(C)OC(=O)*

Legend:
Assay in all cases: growth of human tumour cells (NCI), 48 h
[1] = system: SK-OV-3 ovarian
[2] = system: MOLT-4 leukemia
[3] = system: U251 CNS
[4] = system: UACC-62 melanoma
[5] = system: KM20L2 colon
[6] = system: UACC-257 melanoma
[7] = system: DMS 273 small cell lung
[8] = system: HL-60(TB) leukemia
[9] = system: MCF7 breast
[10] = system: MDA-MB-231 breast
[11] = system: LXFL 529 NSCLC
[12] = system: DLD-1 colon

| SMILES | TGI [1] [µM] | TGI [2] | TGI [3] | TGI [4] [µM] | TGI [5] [µM] | TGI [6] [µM] | TGI [7] [µM] | TGI [8] | GI50 [1] [µM] | GI50 [9] | TGI [9] [µM] | GI50 [2] | GI50 [3] | GI50 [10] | TGI [10] [µM] | GI50 [4] | GI50 [6] [µM] | GI50 [8] | TGI [11] [µM] | TGI [12] [µM] |
| --- | --- | --- | --- | --- | --- | --- | --- | --- | --- | --- | --- | --- | --- | --- | --- | --- | --- | --- | --- | --- |
| COC(=O)c1s/c(=N\C(=S)N(C)C)n(-c2ccc(Cl)cc2)c1C(=O)OC | > 10 | > 100 µM | > 100 µM | > 10 | > 100 | > 100 | > 100 | > 100 µM | – | – | – | – | – | – | – | – | – | – | – | – |
| COc1ccc(C(O)(CCC(C)C)C(CN2CCOCC2)c2ccc(Cl)cc2)cc1 (centres undefined) | 75.8 | 33.1 µM | 26.3 µM | 29.1 | – | 33 | – | 39.1 µM | 21.8 | 10400 nM | 24.6 | 9830 nM | 12300 nM | 12.1 µM | 27.2 | 13400 nM | 13.4 | 14.8 µM | – | – |
| O=C(CNS(=O)(=O)Cc1ccccc1)NNc1ccccc1 | > 100 | > 100 µM | > 100 µM | > 25.6 | – | > 100 | – | > 100 µM | – | – | > 100 | – | – | – | > 100 | – | – | – | – | – |
| COc1ccccc1Nc1ncc(-c2ccccc2)o1 | > 25 | > 25 µM | > 25 µM | > 25 | – | > 25 | – | > 25 µM | > 25 | > 25000 nM | > 25 | > 25000 nM | > 25000 nM | > 25 µM | > 25 | > 25000 nM | > 25 | > 25 µM | – | – |
| C#Cc1nc(Nc2cc(C)[nH]n2)c2ccccc2n1 | > 100 | 0.685 µM | 0.885 µM | 0.332 | – | 0.631 | – | 0.887 µM | 3.19 | 197 nM | 1.67 | 250 nM | 256 nM | 0.203 µM | 0.424 | 165 nM | 0.2 | 0.265 µM | – | – |
| COc1cc(/C=C/C(=O)c2cccc(-n3cc(-c4ccc(Cl)cc4)[nH]c3=O)c2)ccc1O | > 30.2 | > 25.1 µM | 6.01 µM | 9.59 | – | 18.6 | – | > 24.3 µM | 4.78 | 1440 nM | 7.98 | 1620 nM | 2190 nM | 3.46 µM | > 39.1 | 2500 nM | 5.53 | 4.56 µM | – | – |
| CN(C)C(=S)Sc1ccc([N+](=O)[O-])cc1[N+](=O)[O-] | 31.2 | > 42 µM | 8.97 µM | 5.97 | – | 4.9 | – | 8.54 µM | 12 | 777 nM | 5.03 | 2040 nM | 1580 nM | 3.04 µM | 11.9 | 1710 nM | 1.75 | 2.68 µM | – | – |
| CCN(Cc1ccc(F)cc1)c1ccc(CO)c(Br)c1 | 21.9 | 53.1 µM | 13 µM | 0.342 | – | 0.185 | – | 26.4 µM | 5.18 | 150 nM | 16.1 | 18800 nM | 171 nM | 14.2 µM | 36.5 | 52.2 nM | 0.0406 | 3.26 µM | – | – |
| COC(=O)C1=CN(CC2=CC(=O)C(C)=CC2=O)C=C(C(=O)OC)C1c1cccc(OC)c1 | 43.1 | > 100 µM | 30.5 µM | 29.4 | – | 31 | – | > 100 µM | 20.3 | 16000 nM | > 100 | 3110 nM | 8470 nM | 13.4 µM | 31.2 | 13600 nM | 16.3 | 4.76 µM | – | – |
| COc1ccc(-c2nsc3c2NC(=O)CC3c2cccc(OC)c2)cc1 (centres undefined) | 7.43 | > 100 µM | > 100 µM | > 100 | – | > 100 | – | 17.4 µM | 1.45 | 550 nM | > 100 | 2180 nM | 1830 nM | 1.17 µM | > 100 | 865 nM | 12.9 | 1.35 µM | – | – |
| O=S(=O)(Nc1ccc(Cl)cc1Cl)c1ccc(-c2cnc(C3CC3)o2)cc1 | 99.4 | > 100 µM | 33.8 µM | 26.7 | – | 60.5 | – | 9.41 µM | 7.1 | 350 nM | 41.2 | 692 nM | 613 nM | 2.08 µM | 28.4 | 391 nM | 10.5 | 0.351 µM | – | – |
| COC(=O)c1ccc2c(c1)/C(=C\c1cc(Br)c(O)c(Br)c1)C(=O)N2 | > 25 | > 24.1 µM | > 25 µM | 8.8 | – | 15.5 | – | 14.6 µM | 6.57 | 8010 nM | > 25 | 7590 nM | 6590 nM | 6.83 µM | > 25 | 2770 nM | 4.24 | 4.97 µM | – | – |
| COC12OCCN(C)C1=CC(=O)C1=NNC(C)C12 (centres undefined) | > 100 | > 100 µM | > 100 µM | > 100 | – | > 100 | > 100 | > 100 µM | – | – | – | – | – | – | – | – | – | – | > 100 | > 100 |
| CCN(CC)CCSc1c2ccccc2nc2c(OC)ccc(OC)c12 | 69.2 | 3.84 µM | 49.4 µM | > 22.2 | > 21.1 | 16.5 | 25 | 17.7 µM | – | – | – | – | – | – | – | – | – | – | > 21.3 | – |
| COC12C(COC(N)=O)C3=C(C(=O)C(C)=C(N)C3=O)N1CC1C2N1C (centres undefined) | 49 | 18.6 µM | 22.6 µM | 11.1 | 52.3 | 35.6 | 5.81 | 8.66 µM | – | – | 22.3 | – | – | – | 115 | – | – | – | – | 57.8 |
| COC(=O)C(C)NC(=O)C(CCSC)NC(=O)C(Cc1ccccc1)NC(=O)OC(C)(C)C (stereo not drawn) (Boc-Phe-Met-Ala-OMe; configuration not given here) | > 100 | 40.2 µg/mL and > 100 µM | 67 µg/mL and > 100 µM | > 100 | – | > 100 | – | 64.6 µg/mL and > 100 µM | – | 31.7 µg/mL | > 100 | 18.6 µg/mL | 22.6 µg/mL | 33.2 µg/mL | > 100 | 28.2 µg/mL | – | 30.2 µg/mL | – | – |
